Test results from US20230279072A1, “REGULATORY T CELL EPITOPES” (EpiVax Inc., priority 2020, published 2023).
“Also recorded” adds a separate entry of the source.

Experiments:
[1] = test system: HLA-DRB1*0101, *0301, *0401, *0701, *1101, *1301 and *1501 alleles; test: In vitro HLA DRB1 binding assay, panel of seven alleles; set-up: species or system human; conditions: for breadth of binding to HLA DRB1 alleles: seven alleles
Description: The six FV peptides were tested for in vitro binding to HLA-DRB1*0101, *0301, *0401, *0701, *1101, *1301 and *1501 alleles.

[2] = test system: CD4+ T cells in PBMCs from healthy donors; test: Tetanus Toxoid Bystander Suppression Assay (TTBSA); type: cell-based, human; conditions: for inhibition of the CD4+ T memory response / T effector proliferation in the TTBSA: PBMC from three HLA-diverse donors
[3] = test system: panel of five common Class II HLA alleles: HLA-DRB1*0101, HLA-DRB1*0301, HLA-DRB1*0701, HLA-DRB1*1101, and HLA-DRB1*1501; test: Soluble HLA competition binding assay, panel of five alleles; set-up: species or system human
Description: HLA Binding Assay. Binding activity was analyzed atEpiVax (Providence, R.I.). The binding assay used (Steere A C et al., (2006), J Exp Med, 2003(4):961-71) yielded an indirect measure of peptide-MHC affinity. Soluble HLA molecules were loaded onto a 96-well plate with the unlabeled experimental Tregitopes and labeled control peptide. Once the binding mixture reached steady equilibrium (at 24 hours), the HLA-Tregitope complexes were captured on an ELISA plate coated with anti-human DR antibody and detected with a Europium-linked probe for the label (PerkinElmer, Waltham, Mass.). Time-resolved fluorescence measuring bound labeled control peptide is assessed by a SpectraMax® M5 unit (Spectramax, Radnor, Pa.). Binding of experimental Tregitopes was expressed as the percent inhibition of the labeled control peptide (experimental fluorescence/control fluorescence multiplied by 100). […]
CD4+ effector memory T cells contained within PBMC cell populations can be induced to proliferate in response to stimulation with known T cell epitopes. […] Binding of experimental Tregitopes is expressed as the percent inhibition of the labeled control peptide (experimental fluorescence/control fluorescence multiplied by 100). […]

PBMCs = type: cell-based, human
Description: For the T reg assays, PBMCs were thawed according standard procedure, labeled with carboxyfluorescein succinimidyl ester (CFSE), and rested overnight in 96 well culture plate prior to use in in vitro assays. To evaluate the dose response of FV621 on the viability, cells were incubated with FV621 for 2, 3, 5 and 7 days in culture and live cells evaluated by flow cytometry using a live-dead viability dye and by counting in a cellometer (Nexcelom) using trypan blue exclusion. […]
To rule out the possibility that the effect of FV621 was related to toxic effects of the peptide, which might simulate a suppressive effect in vitro, we evaluated the viability of cells in culture with FV621 using two different methods. Cells were cultured in the presence of FV621 in a 96 well plate for 2, 3, 5 and 7 days after which cells were collected and stained with live-dead viability dye and analyzed by flow cytometry (data not shown) and by trypan blue exclusion and counting with a cellometer (Nexcelom). The absolute number of live cells that was counted at days 2, 3, 5 and 7 after stimulation with different doses of FV621 Tregitope was similar by flow cytometry.

[4] = test system: CD4+ effector memory T cells; test: Suppression of Tetanus Toxoid stimulated CD4+ effector T cells in PBMC; type: cell-based, human; set-up: CD4+ T cell activation reduced by: dose or concentration left out as unconfirmed
Description: Previously harvested and frozen PBMC were thawed and suspended in conditioned chRPMI (3.3×10^6 cells/mL) by conventional means. Cells were stained with CFSE (Cat #: 65-0850-84, Affymetrix, Santa Clara, Calif.) and plated at 300,000 cells per well. Plates were incubated overnight (37° C. in 5% CO2). […] Previous titration experiments performed at EpiVax (EpiVax, Providence, R.I.) have established that stimulation with 0.5 μg/ml Tetanus Toxoid (TT) (Astarte Biologics, Bothell, Wash.) elicits a measurable CD4+ effector memory T cells response in PBMC drawn from healthy control donors (Rhode Island Blood Center, Providence, R.I.). Tetanus Toxoid stock (100 μg/mL) (Astarte Biologics, Bothell, Wash.) was diluted in conditioned chRPMI yielding a working concentration of 1 ug/mL. […] All plates were then incubated for six additional days. On assay day five, 100 μL of supernatant was removed from each well and replaced with freshly conditioned chRPMI.
On assay day seven, cells were removed from incubation. Cells were labeled for live/dead discrimination, for surface markers CD127, CCR7, CD4, CD45RA, and CD25 and for intracellular FoxP3. Stained cells were further prepared for FACS analysis by conventional means. Cells were first gated to eliminate aggregates and dead cells. Live cells were gated for CD4 T cells and all subsequent analysis was done on this population. The activated Teffector population was identified as the CD4+/CD25-high/FoxP3-intermediate (CD4+/CD25^1/FoxP3int) (FIG. 8A).
Proliferation of CD4+/CD25-high (CD4^+/CD25^hi) T cells was estimated from the dilution of the CFSE stain (Cat #: 65-0850-84, Affymetrix, Santa Clara, Calif.) and % proliferation determined by the CFSE-low (CFSEL^lo) population (FIG. 8B).

## CC[C@H](C)[C@H](NC(=O)[C@H](C)NC(=O)[C@H](Cc1c[nH]cn1)NC(=O)[C@H](Cc1ccccc1)NC(=O)[C@H](CCC(=O)O)NC(=O)[C@H](Cc1c[nH]cn1)NC(=O)[C@H](CO)NC(C)=O)C(=O)N[C@@H](CC(N)=O)C(=O)NCC(=O)N[C@@H](CCSC)C(=O)N[C@H](C(=O)N[C@@H](Cc1ccc(O)cc1)C(=O)N[C@@H](CO)C(=O)N[C@@H](CC(C)C)C(=O)N1CCC[C@H]1C(N)=O)[C@@H](C)CC [SEQ ID NO: 7]
[1]
  breadth of binding to HLA DRB1 alleles: bind to multiple HLA DRB1 alleles
[2]
  inhibition of the CD4+ T memory response / T effector proliferation in the TTBSA: did not inhibit

## CC(=O)N[C@@H](Cc1ccccc1)C(=O)N[C@@H](C)C(=O)N[C@H](C(=O)N[C@@H](Cc1ccccc1)C(=O)N[C@@H](CC(=O)O)C(=O)N[C@@H](CCC(=O)O)C(=O)N[C@@H](CC(N)=O)C(=O)N[C@@H](CCCCN)C(=O)N[C@@H](CO)C(=O)N[C@@H](Cc1c[nH]c2ccccc12)C(=O)N[C@@H](Cc1ccc(O)cc1)C(=O)N[C@@H](CC(C)C)C(=O)N[C@@H](CCC(=O)O)C(=O)N[C@@H](CC(=O)O)C(=O)N[C@@H](CC(N)=O)C(N)=O)C(C)C [SEQ ID NO: 4]
[3]
  HLA binding profile: highly-restricted HLA binding profiles
[1]; listed as FV548
  breadth of binding to HLA DRB1 alleles: somewhat more restricted in the breadth of binding; also recorded: more limited binding to HLA DR
[2]
  inhibition of the CD4+ T memory response / T effector proliferation in the TTBSA: did not inhibit

## G628H: FV621 with point mutation at TCR facing position G628H (glycine changed to histidine) (ILTIHFTHHSFIYGK)
[1]; across the alleles tested
  binding affinity to HLA DR alleles (in words): identical to FV621
[2]; point-mutated FV621 peptides, data not shown
  suppressive capacity on TT-induced memory CD4 T cell proliferation relative to FV621: significantly diminished suppressive capacity

## CC[C@H](C)[C@H](NC(=O)[C@H](CC(C)C)NC(=O)[C@H](CC(C)C)NC(=O)[C@@H]1CCCN1C(=O)CNC(=O)[C@@H](NC(=O)[C@H](CC(C)C)NC(=O)CNC(=O)[C@H](CO)NC(=O)[C@H](Cc1c[nH]cn1)NC(=O)[C@@H](NC(=O)[C@H](CC(=O)O)NC(=O)[C@H](CCCCN)NC(=O)[C@H](CCC(=O)O)NC(C)=O)[C@@H](C)CC)[C@@H](C)CC)C(N)=O [SEQ ID NO: 6]
[3]
  HLA binding profile: highly-restricted HLA binding profiles
[1]; listed as FV1737
  breadth of binding to HLA DRB1 alleles: somewhat more restricted in the breadth of binding; also recorded: more limited binding to HLA DR
[2]
  inhibition of the CD4+ T memory response / T effector proliferation in the TTBSA: did not inhibit

## CC[C@H](C)[C@H](NC(C)=O)C(=O)N[C@@H](CC(C)C)C(=O)N[C@H](C(=O)N[C@H](C(=O)N[C@@H](Cc1c[nH]cn1)C(=O)N[C@@H](Cc1ccccc1)C(=O)N[C@H](C(=O)NCC(=O)N[C@@H](Cc1c[nH]cn1)C(=O)N[C@@H](CO)C(=O)N[C@@H](Cc1ccccc1)C(=O)N[C@H](C(=O)N[C@@H](Cc1ccc(O)cc1)C(=O)NCC(=O)N[C@@H](CCCCN)C(N)=O)[C@@H](C)CC)[C@@H](C)O)[C@@H](C)CC)[C@@H](C)O [SEQ ID NO: 1]
PBMCs; days 2, 3, 5 and 7, different doses
  absolute number of live cells by flow cytometry: similar
PBMCs; highest dose
  decreased viability by trypan blue exclusion: 10-15%

## CC[C@H](C)[C@H](NC(=O)[C@H](CC(N)=O)NC(=O)[C@H](CO)NC(=O)[C@H](CCC(=O)O)NC(C)=O)C(=O)N[C@@H](CCSC)C(=O)N[C@@H](CO)C(=O)N[C@H](C(=O)N[C@H](C(=O)N[C@@H](CC(N)=O)C(=O)NCC(=O)N[C@@H](Cc1ccc(O)cc1)C(=O)N[C@H](C(=O)N1CCC[C@H]1C(=O)N[C@@H](CCC(=O)O)C(=O)N[C@@H](CO)C(N)=O)C(C)C)[C@@H](C)CC)[C@@H](C)O [SEQ ID NO: 5]
[1]; listed as FV582
  breadth of binding to HLA DRB1 alleles: somewhat more restricted in the breadth of binding; also recorded: more limited binding to HLA DR
[2]
  inhibition of the CD4+ T memory response / T effector proliferation in the TTBSA: did not inhibit

## IHSIHFSGHVFTVRK (listed as Homo sapiens) [SEQ ID NO: 2]
[4]; 5, 10, 15, and 20 ug/ml, two donors
  proliferation of CD4+ T cells and activated T effector T cells: suppressed proliferation of CD4+ T cells and activated T effector T cells in a dose dependent manner
[4]; Donor 096, with TT
  CD4+ T cell activation reduced by: 70%
[4]; Donor 120, with TT
  CD4+ T cell activation reduced by: 50%
